Our source for the TGI and GI50 values is PubChem BioAssay (NCI).

Each structure is given as a SMILES string.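 Five concentrations, 48 hours, 96-well plates. GI50 marks 50% less growth. TGI denotes the concentration required for complete inhibition of growth.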

The first test relates to HT29 colon. The experiment in a line: growth of human tumour cells (NCI), 48 h.
In the case of `N#Cc1c(NC(=S)NC(=O)c2ccccc2)nc2c(c1-c1ccccc1)CCC2`, the TGI is over 100 µM.
Same read-out and setting: the result for `O=C(Nc1ccc(I)cc1C(=O)NCCO)c1cccs1` reads over 100 µM; that for `CCn1cc(C(c2ccc(Cl)cc2)n2ccnc2)c2cc(Br)ccc21` (stereo not given), 22.3 µM.
Regarding `CSC1=Nc2ccccc2N(C)c2c1c(-c1ccccc1)nn2C`, the TGI was over 100 µM.
`O=[Se]([O-])c1ccccc1.O=[Se]([O-])c1ccccc1.[OH3+].[OH3+].[Pt+2]`: the GI50 was 3.09 µM and the TGI stood at 14.6 µM.
`COC1OC(=O)[C@H]2O[N+]([O-])=C(C)[C@@H]12` (stereo not given in full) yielded a TGI of over 100 µM.

Another test concerns COLO 205 colon. In words: growth of human tumour cells (NCI), 48 h.
`N#Cc1c(NC(=S)NC(=O)c2ccccc2)nc2c(c1-c1ccccc1)CCC2` yielded a TGI of over 100 µM.
On the same count and under the same terms, the result for `O=C(Nc1ccc(I)cc1C(=O)NCCO)c1cccs1` reads over 100 µM; that for `CCn1cc(C(c2ccc(Cl)cc2)n2ccnc2)c2cc(Br)ccc21` (stereo not given), 35.1 µM.
Turning to `CSC1=Nc2ccccc2N(C)c2c1c(-c1ccccc1)nn2C`, the TGI is over 100 µM.
On to `O=[Se]([O-])c1ccccc1.O=[Se]([O-])c1ccccc1.[OH3+].[OH3+].[Pt+2]`, for which the GI50 is 6.78 µM and the TGI turned out to be 18.4 µM.
`COC1OC(=O)[C@H]2O[N+]([O-])=C(C)[C@@H]12` (stereo not given in full) had a TGI of over 100 µM.

Another test relates to IGROV1 ovarian. The experiment in a line: growth of human tumour cells (NCI), 48 h.
In turn, `N#Cc1c(NC(=S)NC(=O)c2ccccc2)nc2c(c1-c1ccccc1)CCC2` returned a TGI of over 100 µM.
With `O=C(Nc1ccc(I)cc1C(=O)NCCO)c1cccs1`, the TGI is over 100 µM.
Compound `CCn1cc(C(c2ccc(Cl)cc2)n2ccnc2)c2cc(Br)ccc21` (stereo not given) gave a TGI of 24.8 µM.
For `CSC1=Nc2ccccc2N(C)c2c1c(-c1ccccc1)nn2C`, the TGI is over 100 µM.
With `O=[Se]([O-])c1ccccc1.O=[Se]([O-])c1ccccc1.[OH3+].[OH3+].[Pt+2]`, the GI50 was 9.02 µM and the TGI was over 42 µM.
In turn, `COC1OC(=O)[C@H]2O[N+]([O-])=C(C)[C@@H]12` (stereo not given in full) gave a TGI of over 100 µM.

For another test, the system named is SK-MEL-5 melanoma. The experiment in a line: growth of human tumour cells (NCI), 48 h.
`N#Cc1c(NC(=S)NC(=O)c2ccccc2)nc2c(c1-c1ccccc1)CCC2` registered a TGI of over 100 µM.
Still for that read-out and setting: the figure for `O=C(Nc1ccc(I)cc1C(=O)NCCO)c1cccs1` is over 100 µM; for `CCn1cc(C(c2ccc(Cl)cc2)n2ccnc2)c2cc(Br)ccc21` (stereo not given) it is 31.2 µM; for `CSC1=Nc2ccccc2N(C)c2c1c(-c1ccccc1)nn2C` it is 43.4 µM.
As to `O=[Se]([O-])c1ccccc1.O=[Se]([O-])c1ccccc1.[OH3+].[OH3+].[Pt+2]`, the GI50 was 13.9 µM and the TGI was 30.5 µM.
With `COC1OC(=O)[C@H]2O[N+]([O-])=C(C)[C@@H]12` (stereo not given in full), the TGI is over 100 µM.

The next test concerns UACC-62 melanoma. In words: growth of human tumour cells (NCI), 48 h.
In the case of `N#Cc1c(NC(=S)NC(=O)c2ccccc2)nc2c(c1-c1ccccc1)CCC2`, the TGI is over 100 µM.
The compound `O=C(Nc1ccc(I)cc1C(=O)NCCO)c1cccs1` yielded a TGI of over 100 µM.
Still for that read-out and setting: the result for `CCn1cc(C(c2ccc(Cl)cc2)n2ccnc2)c2cc(Br)ccc21` (stereo not given) reads 25.2 µM; that for `CSC1=Nc2ccccc2N(C)c2c1c(-c1ccccc1)nn2C`, over 100 µM.
Regarding `O=[Se]([O-])c1ccccc1.O=[Se]([O-])c1ccccc1.[OH3+].[OH3+].[Pt+2]`, the GI50 is 13.1 µM and the TGI worked out at 55.6 µM.
`COC1OC(=O)[C@H]2O[N+]([O-])=C(C)[C@@H]12` (stereo not given in full) yielded a TGI of over 100 µM.

Another test deals with NCI/ADR-RES ovarian. The experiment in a line: growth of human tumour cells (NCI), 48 h.
The compound `N#Cc1c(NC(=S)NC(=O)c2ccccc2)nc2c(c1-c1ccccc1)CCC2` had a TGI of over 100 µM.
On the same count and under the same terms, the result for `O=C(Nc1ccc(I)cc1C(=O)NCCO)c1cccs1` reads over 100 µM.
The same measure, in the same setting: the result for `CCn1cc(C(c2ccc(Cl)cc2)n2ccnc2)c2cc(Br)ccc21` (stereo not given) reads 42.7 µM; that for `CSC1=Nc2ccccc2N(C)c2c1c(-c1ccccc1)nn2C`, over 100 µM.
Take `O=[Se]([O-])c1ccccc1.O=[Se]([O-])c1ccccc1.[OH3+].[OH3+].[Pt+2]`: the GI50 was 2.8 µM and the TGI came out at 9.89 µM.
In the case of `COC1OC(=O)[C@H]2O[N+]([O-])=C(C)[C@@H]12` (stereo not given in full), the TGI was over 100 µM.

A further test concerns SK-OV-3 ovarian. In words: growth of human tumour cells (NCI), 48 h.
As to `N#Cc1c(NC(=S)NC(=O)c2ccccc2)nc2c(c1-c1ccccc1)CCC2`, the TGI was over 100 µM.
On the same count and under the same terms, the result for `O=C(Nc1ccc(I)cc1C(=O)NCCO)c1cccs1` reads over 100 µM; that for `CCn1cc(C(c2ccc(Cl)cc2)n2ccnc2)c2cc(Br)ccc21` (stereo not given), 33.3 µM; that for `CSC1=Nc2ccccc2N(C)c2c1c(-c1ccccc1)nn2C`, over 100 µM.
Consider `O=[Se]([O-])c1ccccc1.O=[Se]([O-])c1ccccc1.[OH3+].[OH3+].[Pt+2]`, for which the GI50 is 56.6 µM and the TGI was over 100 µM.
Turning to `COC1OC(=O)[C@H]2O[N+]([O-])=C(C)[C@@H]12` (stereo not given in full), the TGI was over 100 µM.

A further test relates to CAKI-1 renal. In words: growth of human tumour cells (NCI), 48 h.
`N#Cc1c(NC(=S)NC(=O)c2ccccc2)nc2c(c1-c1ccccc1)CCC2` had a TGI of over 100 µM.
The same measure, in the same setting: the result for `O=C(Nc1ccc(I)cc1C(=O)NCCO)c1cccs1` reads over 100 µM; that for `CCn1cc(C(c2ccc(Cl)cc2)n2ccnc2)c2cc(Br)ccc21` (stereo not given), 27.3 µM; that for `CSC1=Nc2ccccc2N(C)c2c1c(-c1ccccc1)nn2C`, over 100 µM.
On to `O=[Se]([O-])c1ccccc1.O=[Se]([O-])c1ccccc1.[OH3+].[OH3+].[Pt+2]`, for which the GI50 was 11 µM and the TGI is over 26.4 µM.
In turn, `COC1OC(=O)[C@H]2O[N+]([O-])=C(C)[C@@H]12` (stereo not given in full) returned a TGI of over 100 µM.

For the next test, the system named is A549 NSCLC. In words: growth of human tumour cells (NCI), 48 h.
As for `N#Cc1c(NC(=S)NC(=O)c2ccccc2)nc2c(c1-c1ccccc1)CCC2`, the TGI is over 100 µM.
The same measure, in the same setting: the figure for `O=C(Nc1ccc(I)cc1C(=O)NCCO)c1cccs1` is over 100 µM; for `CCn1cc(C(c2ccc(Cl)cc2)n2ccnc2)c2cc(Br)ccc21` (stereo not given) it is 24 µM; for `CSC1=Nc2ccccc2N(C)c2c1c(-c1ccccc1)nn2C` it is over 100 µM.
For the compound `O=[Se]([O-])c1ccccc1.O=[Se]([O-])c1ccccc1.[OH3+].[OH3+].[Pt+2]`, the GI50 is 12.2 µM and the TGI was 58.8 µM.
In turn, `COC1OC(=O)[C@H]2O[N+]([O-])=C(C)[C@@H]12` (stereo not given in full) returned a TGI of over 100 µM.

The test system of a further test is NCI-H23 lung. In words: growth of human tumour cells (NCI), 48 h.
In turn, `N#Cc1c(NC(=S)NC(=O)c2ccccc2)nc2c(c1-c1ccccc1)CCC2` came in with a TGI of over 100 µM.
Same read-out and setting: the result for `O=C(Nc1ccc(I)cc1C(=O)NCCO)c1cccs1` reads over 100 µM; that for `CCn1cc(C(c2ccc(Cl)cc2)n2ccnc2)c2cc(Br)ccc21` (stereo not given), 31.1 µM.
Still for that read-out and setting: the figure for `CSC1=Nc2ccccc2N(C)c2c1c(-c1ccccc1)nn2C` is over 100 µM.
As to `O=[Se]([O-])c1ccccc1.O=[Se]([O-])c1ccccc1.[OH3+].[OH3+].[Pt+2]`, the GI50 is 7.01 µM and the TGI turned out to be 88.4 µM.
Compound `COC1OC(=O)[C@H]2O[N+]([O-])=C(C)[C@@H]12` (stereo not given in full) showed a TGI of over 100 µM.
